Data on one sequence can be found in US8546556B2, “Carbocyclic alpha-L-bicyclic nucleic acid analogs” (Isis Pharmaceuticals, Inc, priority 2007, dated 2013).

The data set relates to snake venom phosphodi-esterase (SVPD). Conditions: SVPD 0.0005 U/mL, 50 mM Tris-HCl pH 7.5, 8 mM MgCl2, 37° C., oligomer 5 μm; full-length oligomer by IP-HPLC/MS.

Protocol: [drawing 26] • The nuclease stability was determined after treatment with snake venom phosphodi-esterase (SVPD). Each of the test oligomers was incubated with SVPD (0.0005 U/mL) in 50 mM Tris-HCl, pH 7.5, 8 mM MgCl2 at 37° C. to a final concentration of 5 μm in a total volume of 400 μL. At each time point, a 50 μL aliquot and quenching buffer (8 M Urea, 50 mM EDTA) was placed in a 500 μL, microfuge tube. Kinetic time points were taken at 0, 0.5, 1, 1.5, 2, and 4 minutes for 7157; 0, 0.5, 1, 1.5, 2, 2.5, 3 and 5 minutes for 440140. The samples were then cooled on ice and spun in a Microfuge to bring the entire volume to the bottom of the tube. Samples were kept frozen until ready for LC/MS analysis.
For each sample the oligomer and metabolites were separated and analyzed using IP-HPLC/MS techniques. Samples were diluted to a concentration of 1 μM with quenching buffer in a microsampling vial and 50 μL of the sample was injected into the IP-HPLC column (YMC ODS-AQ™ 1.0 mm×150 mm, 3 μm, 120 A°). The loading buffer used was 25 mM TBAA (tributyl ammonium acetate) in 25% acetonitrile. […] The percentages of the full-length oligomers were calculated by integration using Caesar v. 6 software (Senetec Software, New Jersey) and the oligonucleotide half-lives were calculated using GraphPad Prism 4.

In the case of TTTTTTTTTTTT [ISIS 7157], the “Half Life” value turned out to be 24 s.
